Test results from the supplement of paper PMC13380429.

Columns and labels:
Conditions in all cases: 72 h
HepG2 [1] = assay: drug sensitivity score (DSS) for viability; higher = more toxic; extreme values may be limits of the assay
U2OS [2] = assay: as above
Vero E6 [3] = assay: as above
Caco-2 [4] = assay: as above
Calu-3 [5] = assay: as above
HepG2 [6] = assay: cell viability relative to DMSO; higher = less toxic
U2OS [7] = assay: as above
Vero E6 [8] = assay: as above
Caco-2 [9] = assay: as above
Calu-3 [10] = assay: as above
HepG2 [11] = assay: relative viability EC50 (midpoint between 100% and the lowest measured viability); higher = less toxic
U2OS [12] = assay: as above
Vero E6 [13] = assay: as above
Caco-2 [14] = assay: as above
Calu-3 [15] = assay: as above

SMILES | drug sensitivity score (HepG2 [1]) | drug sensitivity score (U2OS [2]) | drug sensitivity score (Vero E6 [3]) | drug sensitivity score (Caco-2 [4]) | drug sensitivity score (Calu-3 [5]) | cell viability (HepG2 [6]; 1 nM) [%] | cell viability (HepG2 [6]; 10 nM) [%] | cell viability (HepG2 [6]; 100 nM) [%] | cell viability (HepG2 [6]; 1000 nM) [%] | cell viability (HepG2 [6]; 10000 nM) [%] | cell viability (U2OS [7]; 1 nM) [%] | cell viability (U2OS [7]; 10 nM) [%] | cell viability (U2OS [7]; 100 nM) [%] | cell viability (U2OS [7]; 1000 nM) [%] | cell viability (U2OS [7]; 10000 nM) [%] | cell viability (Vero E6 [8]; 1 nM) [%] | cell viability (Vero E6 [8]; 10 nM) [%] | cell viability (Vero E6 [8]; 100 nM) [%] | cell viability (Vero E6 [8]; 1000 nM) [%] | cell viability (Vero E6 [8]; 10000 nM) [%] | cell viability (Caco-2 [9]; 1 nM) [%] | cell viability (Caco-2 [9]; 10 nM) [%] | cell viability (Caco-2 [9]; 100 nM) [%] | cell viability (Caco-2 [9]; 1000 nM) [%] | cell viability (Caco-2 [9]; 10000 nM) [%] | cell viability (Calu-3 [10]; 1 nM) [%] | cell viability (Calu-3 [10]; 10 nM) [%] | cell viability (Calu-3 [10]; 100 nM) [%] | cell viability (Calu-3 [10]; 1000 nM) [%] | cell viability (Calu-3 [10]; 10000 nM) [%] | relative viability EC50 (HepG2 [11]) [µM] | relative viability EC50 (U2OS [12]) [µM] | relative viability EC50 (Vero E6 [13]) [µM] | relative viability EC50 (Caco-2 [14]) [µM] | relative viability EC50 (Calu-3 [15]) [µM]
Cc1cc(C(=O)N2Cc3cnn(C)c3Nc3ccccc32)ccc1CNC(=O)N1CCC[C@H]1C(=S)N1CCCN(C)CC1 [TC-OT-39] | 0 | 0 | 0 | 0 | 0 | 100 | 90.3 | 97 | 104 | 96.8 | 97.7 | 100 | 106 | 98 | 101 | 95.3 | 98.6 | 94.4 | 97.5 | 102 | 99.8 | 92.2 | 98.7 | 106 | 100 | 98.1 | 84.4 | 105 | 97.9 | 90 | > 10 | > 10 | > 10 | > 10 | > 10
O=C(O)CC1CC(c2ccccc2)=NO1 (stereo not given) [VGX-1027] | 0 | 0 | 0 | 0 | 0 | 98.1 | 93.8 | 101 | 104 | 115 | 101 | 94.8 | 97.1 | 103 | 103 | 94.1 | 94.7 | 97.6 | 95 | 102 | 98.2 | 106 | 99.6 | 96.1 | 104 | 91.7 | 101 | 91.8 | 93.7 | 103 | > 10 | > 10 | > 10 | > 10 | > 10
COc1cc2c(Nc3ccc(Cl)c(Cl)c3F)ncnc2cc1OC[C@@H]1C[C@@H]2CN(C)C[C@@H]2C1 [XL647] | 6.3 | 8.2 | 13.6 | 8.4 | 15.3 | 102 | 89.7 | 99.7 | 92.9 | 6.7 | 95.9 | 95.9 | 93.7 | 84.2 | -0.3 | 96.8 | 100 | 85.1 | 39.2 | -0.4 | 92.1 | 92.6 | 95 | 72.1 | 14.9 | 98.8 | 93.2 | 82.4 | 31 | 0.7 | 2.55 | 1.94 | 0.612 | 1.39 | 0.431
Cc1ccc(Oc2ccccc2-c2csc(N=C3NCCCN3)n2)c(C)c1 [abafungin] | 2.3 | 0 | 0 | 2 | 0 | 105 | 104 | 104 | 87.8 | 75.8 | 91.6 | 95.2 | 93.6 | 96.7 | 91.2 | 106 | 99.8 | 105 | 99.4 | 97.7 | 104 | 105 | 100 | 87.5 | 78.3 | 90.4 | 99 | 104 | 99.3 | 112 | > 10 | > 10 | > 10 | > 10 | > 10
CC(=O)Nc1c(I)cc(I)c(C(=O)O)c1I [acetriazoic-acid] | 0 | 0 | 0 | 0 | 0 | 96.6 | 92.1 | 89.9 | 95.8 | 107 | 94.2 | 92.4 | 98.7 | 97.2 | 98.2 | 93.2 | 99 | 93.8 | 98.4 | 102 | 91.2 | 92 | 96.3 | 97.8 | 102 | 98.6 | 95.3 | 95.1 | 99.4 | 97.1 | > 10 | > 10 | > 10 | > 10 | > 10
COc1ccc(-c2ccc3cc(C(=O)O)ccc3c2)cc1C12CC3CC(CC(C3)C1)C2 [adapalene] | 0 | 0 | 0 | 0 | 0.1 | 102 | 96.9 | 109 | 104 | 112 | 94.5 | 98.2 | 94.6 | 99.4 | 98.4 | 98.1 | 94.6 | 95.4 | 93.3 | 115 | 95.3 | 99.6 | 97.6 | 99.4 | 93.3 | 98.6 | 101 | 101 | 101 | 86.2 | > 10 | > 10 | > 10 | > 10 | > 10
C[C@]12CCC(=O)C=C1CC[C@@H]1[C@@H]2C(=O)C[C@]2(C)C(=O)CC[C@@H]12 [adrenosterone] | 0 | 0 | 0 | 0 | 0 | 98.6 | 98.8 | 94.5 | 97.7 | 97.5 | 103 | 95 | 98.2 | 97.4 | 99.1 | 95.3 | 100 | 99.3 | 97.5 | 97.1 | 107 | 96 | 98 | 95 | 97.5 | 106 | 92.5 | 100 | 98.1 | 96.4 | > 10 | > 10 | > 10 | > 10 | > 10
C=CC[C@]1(O)CC[C@H]2[C@@H]3CCC4=CCCC[C@@H]4[C@H]3CC[C@@]21C [allylestrenol] | 0 | 0 | 0 | 0 | 0 | 105 | 104 | 108 | 105 | 98.3 | 94.6 | 98.1 | 94.8 | 99.4 | 99.5 | 102 | 91.5 | 106 | 103 | 97.7 | 107 | 102 | 112 | 102 | 88.8 | 98 | 108 | 116 | 104 | 106 | > 10 | > 10 | > 10 | > 10 | > 10
CN(C)CCC=C1c2ccccc2CCc2ccccc21 [amitriptyline] | 0.8 | 0 | 0 | 0 | 0 | 107 | 102 | 99.1 | 93 | 83.5 | 102 | 98.5 | 100 | 101 | 92.3 | 102 | 94 | 86.5 | 113 | 86.3 | 110 | 77.9 | 104 | 96.5 | 90.8 | 99.6 | 109 | 110 | 104 | 90.3 | > 10 | > 10 | > 10 | > 10 | > 10
CC1(C)S[C@@H]2[C@H](NC(=O)[C@H](N)c3ccc(O)cc3)C(=O)N2[C@H]1C(=O)O [amoxicillin] | 0 | 0 | 0 | 0 | 0 | 99.3 | 106 | 97.3 | 98.2 | 96.4 | 102 | 103 | 96.2 | 102 | 106 | 101 | 97.8 | 98.2 | 88.2 | 102 | 85 | 78.5 | 85.4 | 97 | 97.7 | 109 | 110 | 110 | 106 | 96.5 | > 10 | > 10 | > 10 | > 10 | > 10
CCOC(=O)c1c(CSc2ccccc2)n(C)c2cc(Br)c(O)c(CN(C)C)c12 [arbidol] | 0 | 0 | 0 | 0 | 0.9 | 96 | 104 | 108 | 104 | 97.2 | 98.3 | 92.8 | 96.8 | 92.4 | 93.8 | 92.9 | 96.6 | 92 | 104 | 101 | 94.9 | 88.1 | 94.4 | 96.7 | 88.2 | 94.5 | 96.7 | 96 | 96.8 | 81.6 | > 10 | > 10 | > 10 | > 10 | > 10
C[C@@H]1CC[C@H]2[C@@H](C)C(=O)O[C@@H]3O[C@@]4(C)CC[C@@H]1[C@]32OO4 [artemisinin] | 2.5 | 1.1 | 0 | 1.3 | 0 | 97.3 | 93.1 | 88.7 | 86.1 | 77.1 | 96.9 | 99.8 | 94.6 | 91.1 | 78.6 | 97.5 | 95.4 | 98 | 96.9 | 100 | 95.6 | 104 | 102 | 91.4 | 81.6 | 101 | 102 | 99.5 | 95.4 | 97.5 | > 10 | > 10 | > 10 | > 10 | > 10
C=C[C@@H]1C[C@]1(NC(=O)[C@@H]1C[C@@H](Oc2ncc(OC)c3ccc(Cl)cc23)CN1C(=O)[C@@H](NC(=O)OC(C)(C)C)C(C)(C)C)C(=O)NS(=O)(=O)C1CC1 [asunaprevir] | 0.6 | 0 | 0 | 0.1 | 0 | 104 | 97.8 | 98.8 | 89.8 | 86.1 | 98.4 | 101 | 96.7 | 96.8 | 97.8 | 102 | 98.4 | 93.5 | 101 | 91 | 98.7 | 96.5 | 90 | 104 | 85.8 | 104 | 101 | 104 | 101 | 95.9 | > 10 | > 10 | > 10 | > 10 | > 10
C=C[C@@](C)(/C=C/c1ccc(O)cc1)CCC=C(C)C [bakuchiol] | 0.9 | 0 | 0 | 0 | 0 | 107 | 115 | 87.9 | 93 | 81.5 | 96.1 | 101 | 98 | 92.8 | 97.6 | 103 | 110 | 98.7 | 97.6 | 98.5 | 105 | 87.4 | 109 | 96.8 | 97.6 | 94.8 | 94.9 | 95.7 | 96.1 | 98.2 | > 10 | > 10 | > 10 | > 10 | > 10
